Legend:
MiaPaCa-2 cells [1] = experiment: Gemcitabine and OGF cell cycle phase analysis by flow cytometry; type: cell-based, human; details: 2 to 24 hours after OGF exposure
Protocol: To investigate the exact cell cycle phase where gemcitabine and/or OGF exerted their effects, flow cytometry was performed.

MIA PaCa-2 cells = experiment: Growth assays of MIA PaCa-2 cells (MTS assay or cell counting), Example 7; type: cell-based, human; details: MIA PaCa-2; 96 hr (48 hr after reversal)
Protocol: MIA PaCa-2 and PANC-1 human pancreatic adenocarcinoma cell lines were purchased from the American Type Culture Collection (Manasass, Va.). MIA PaCa-2 cells were derived from an undifferentiated epithelial carcinoma occurring in the body and tail of the pancreas in a person. The PANC-1 cells were derived from an undifferentiated carcinoma from the head of the pancreas in a person. MIA PaCa-2 and PANC-1 cells were grown in Dulbecco's MEM (modified) media; media was supplemented with 10% fetal calf serum, 1.2% sodium bicarbonate, and antibiotics (5,000 Units/ml penicillin, 5 mg/ml streptomycin, 10 mg/ml neomycin), and the cells were maintained in a humidified atmosphere of 7% CO2/93% air at 37° C.
MIA PaCa-2 cells were seeded at equivalent amounts into either 75 cm^2 flasks, 6-well plates, or 96-well plates (Falcon) and counted 24 hr later to determine plating efficiency. Growth assays for PANC-1 cells were conducted in 6-well plates (Falcon). Compounds or sterile water were added beginning 24 hr after seeding (=0 hr), and both media and compounds were replaced daily. All drugs were prepared in sterile water and dilutions represent final concentrations of the compounds.
Cell number was recorded either by using a mitogenic bioassay, the MTS assay (Cell Titer 96 One Solution, Promega, Madison, Wis.), and measuring absorbency after 4 hr on a Biorad (Model 3550) plate reader at 490 nm, or by counting cells. For manual counts, cells were harvested with a solution of 0.25% trypsin/0.53 mM EDTA, centrif uiged, and counted with a hemacytometer. Cell viability was determined by trypan blue staining. At least two aliquots per flask or 4-10 wells/treatment were counted at each time.

MiaPaCa-2 cells [2] = experiment: Growth curves of MiaPaCa-2 cells, cell proliferation (MTT) assay, absorbency; details: MiaPaCa-2, 5-FU 10^-5 M and/or OGF 10^−6 M
From the text: Cells were counted using a standard MTT assay. In general, each data point represents the average absorbency taken from 10 wells/treatment; error bars represent the S.E.M.

[Met^5]-enkephalin [OGF]
increase of cells in the G0/G1 phase of the cell cycle (MiaPaCa-2 cells [1]): no significant increases into the G0/G1 phase
difference in cell number between reversal group and group continuing drug exposure (MIA PaCa-2 cells): 16%
decrease in cell number from controls (MiaPaCa-2 cells [2]; 24 h): 7.1%
decrease in cell number from controls (MiaPaCa-2 cells [2]; 48 h): 7.0%
decrease in cell number from controls (MiaPaCa-2 cells [2]; 72 h): 6.9%
decrease in cell number from controls (MiaPaCa-2 cells [2]; 96 h): 14.2%

— patent US8003630B2, “Combinatorial therapies for the treatment of neoplasias using the opioid growth factor receptor” (The Penn State Research Foundation, priority 2004, dated 2011)
